#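 Interpolation was linear, between the two tested concentrations surrounding the appropriate level; five concentrations were tested over 48 hours in 96-well plates. TGI is the concentration that stops growth completely.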
# Tests used:
# Experiment in all cases: DTP human tumour cell line panel, 48 h
# TK-10 renal = system: TK-10 renal
# HS 578T breast = system: HS 578T breast
# MDA-N = system: MDA-N
# HCT-116 colon = system: HCT-116 colon
# UO-31 renal = system: UO-31 renal
# SK-MEL-5 melanoma = system: SK-MEL-5 melanoma
# BT-549 breast = system: BT-549 breast
# NCI-H522 lung = system: NCI-H522 lung
# NCI-H226 lung = system: NCI-H226 lung
# DU-145 prostate = system: DU-145 prostate
# HT29 colon = system: HT29 colon
# MCF7 breast = system: MCF7 breast
# NCI-H460 lung = system: NCI-H460 lung
# CAKI-1 renal = system: CAKI-1 renal
# SF-268 CNS = system: SF-268 CNS
# U251 CNS = system: U251 CNS
# IGROV1 ovarian = system: IGROV1 ovarian
# HL-60(TB) leukemia = system: HL-60(TB) leukemia
# EKVX NSCLC = system: EKVX NSCLC
# OVCAR-5 ovarian = system: OVCAR-5 ovarian
# SF-539 CNS = system: SF-539 CNS
# PC-3 prostate = system: PC-3 prostate
# KM12 colon = system: KM12 colon
# SN12C renal = system: SN12C renal
# SK-MEL-28 melanoma = system: SK-MEL-28 melanoma
# SNB-19 CNS = system: SNB-19 CNS
# MDA-MB-435 = system: MDA-MB-435
# M14 melanoma = system: M14 melanoma
# UACC-257 melanoma = system: UACC-257 melanoma
# 786-0 renal = system: 786-0 renal
# MOLT-4 leukemia = system: MOLT-4 leukemia
# NCI/ADR-RES ovarian = system: NCI/ADR-RES ovarian
# SW-620 colon = system: SW-620 colon
# CCRF-CEM leukemia = system: CCRF-CEM leukemia
# OVCAR-8 ovarian = system: OVCAR-8 ovarian
# T-47D breast = system: T-47D breast
# SF-295 CNS = system: SF-295 CNS
# NCI-H23 lung = system: NCI-H23 lung
# SK-OV-3 ovarian = system: SK-OV-3 ovarian
# SK-MEL-2 melanoma = system: SK-MEL-2 melanoma
# A549 NSCLC = system: A549 NSCLC
# SNB-75 CNS = system: SNB-75 CNS
# COLO 205 colon = system: COLO 205 colon
# K-562 leukemia = system: K-562 leukemia
# RXF 393 renal = system: RXF 393 renal
# OVCAR-4 ovarian = system: OVCAR-4 ovarian
# LOX IMVI melanoma = system: LOX IMVI melanoma
# RPMI-8226 leukemia = system: RPMI-8226 leukemia
# HOP-92 NSCLC = system: HOP-92 NSCLC
# HOP-62 NSCLC = system: HOP-62 NSCLC
# HCT-15 colon = system: HCT-15 colon
# OVCAR-3 ovarian = system: OVCAR-3 ovarian
# MDA-MB-231 breast = system: MDA-MB-231 breast
# HCC-2998 colon = system: HCC-2998 colon
# ACHN renal = system: ACHN renal
# UACC-62 melanoma = system: UACC-62 melanoma
# A498 renal = system: A498 renal
# MALME-3M melanoma = system: MALME-3M melanoma
# SR leukemia = system: SR leukemia
smiles,measurement,setting,value
O=C1C(C=NC(=S)c2ccccc2)=C(O)c2ccccc21,TGI,TK-10 renal,> 100 µM
same,TGI,HS 578T breast,> 100 µM
same,TGI,MDA-N,> 100 µM
same,TGI,HCT-116 colon,> 100 µM
same,TGI,UO-31 renal,> 88.9 µM
same,TGI,SK-MEL-5 melanoma,> 100 µM
same,TGI,BT-549 breast,> 94 µM
same,TGI,NCI-H522 lung,50.9 µM
same,TGI,NCI-H226 lung,> 100 µM
same,TGI,DU-145 prostate,> 100 µM
same,TGI,HT29 colon,> 100 µM
same,TGI,MCF7 breast,> 100 µM
same,TGI,NCI-H460 lung,> 100 µM
same,TGI,CAKI-1 renal,> 100 µM
same,TGI,SF-268 CNS,> 100 µM
same,TGI,U251 CNS,> 100 µM
same,TGI,IGROV1 ovarian,> 70.5 µM
same,TGI,HL-60(TB) leukemia,22 µM
same,TGI,EKVX NSCLC,> 100 µM
same,TGI,OVCAR-5 ovarian,> 100 µM
same,TGI,SF-539 CNS,> 100 µM
same,TGI,PC-3 prostate,> 100 µM
same,TGI,KM12 colon,> 100 µM
same,TGI,SN12C renal,> 100 µM
same,TGI,SK-MEL-28 melanoma,> 100 µM
same,TGI,SNB-19 CNS,> 100 µM
same,TGI,MDA-MB-435,> 100 µM
same,TGI,M14 melanoma,> 100 µM
same,TGI,UACC-257 melanoma,> 100 µM
same,TGI,786-0 renal,> 66.7 µM
same,TGI,MOLT-4 leukemia,69.3 µM
same,TGI,NCI/ADR-RES ovarian,> 100 µM
same,TGI,SW-620 colon,> 100 µM
same,TGI,CCRF-CEM leukemia,53.9 µM
same,TGI,OVCAR-8 ovarian,> 100 µM
same,TGI,T-47D breast,> 100 µM
same,TGI,SF-295 CNS,> 100 µM
same,TGI,NCI-H23 lung,> 100 µM
same,TGI,SK-OV-3 ovarian,85.6 µM
same,TGI,SK-MEL-2 melanoma,> 100 µM
same,TGI,A549 NSCLC,> 100 µM
same,TGI,SNB-75 CNS,> 100 µM
same,TGI,COLO 205 colon,> 100 µM
same,TGI,K-562 leukemia,> 100 µM
same,TGI,RXF 393 renal,> 100 µM
same,TGI,OVCAR-4 ovarian,> 100 µM
same,TGI,LOX IMVI melanoma,> 67.9 µM
same,TGI,RPMI-8226 leukemia,67.6 µM
same,TGI,HOP-92 NSCLC,> 84.8 µM
same,TGI,HOP-62 NSCLC,> 100 µM
same,TGI,HCT-15 colon,> 100 µM
same,TGI,OVCAR-3 ovarian,> 100 µM
same,TGI,MDA-MB-231 breast,> 100 µM
same,TGI,HCC-2998 colon,> 100 µM
same,TGI,ACHN renal,> 100 µM
same,TGI,UACC-62 melanoma,> 100 µM
CCc1n[nH]c(=O)n1O,TGI,TK-10 renal,> 100 µM
same,TGI,HS 578T breast,> 100 µM
same,TGI,MDA-N,> 100 µM
same,TGI,HCT-116 colon,> 100 µM
same,TGI,UO-31 renal,> 100 µM
same,TGI,SK-MEL-5 melanoma,> 100 µM
same,TGI,BT-549 breast,> 100 µM
same,TGI,NCI-H522 lung,> 100 µM
same,TGI,NCI-H226 lung,> 100 µM
same,TGI,DU-145 prostate,> 100 µM
same,TGI,HT29 colon,> 100 µM
same,TGI,MCF7 breast,> 100 µM
same,TGI,CAKI-1 renal,> 100 µM
same,TGI,SF-268 CNS,> 100 µM
same,TGI,U251 CNS,> 100 µM
same,TGI,IGROV1 ovarian,> 100 µM
same,TGI,HL-60(TB) leukemia,> 100 µM
same,TGI,A498 renal,> 100 µM
same,TGI,EKVX NSCLC,> 100 µM
same,TGI,SF-539 CNS,> 100 µM
same,TGI,KM12 colon,> 100 µM
same,TGI,SN12C renal,> 100 µM
same,TGI,SK-MEL-28 melanoma,> 100 µM
same,TGI,SNB-19 CNS,> 100 µM
same,TGI,MDA-MB-435,> 100 µM
same,TGI,UACC-257 melanoma,> 100 µM
same,TGI,786-0 renal,> 100 µM
same,TGI,MOLT-4 leukemia,> 100 µM
same,TGI,NCI/ADR-RES ovarian,> 100 µM
same,TGI,SW-620 colon,> 100 µM
same,TGI,MALME-3M melanoma,> 100 µM
same,TGI,CCRF-CEM leukemia,> 100 µM
same,TGI,OVCAR-8 ovarian,> 100 µM
same,TGI,SR leukemia,> 100 µM
same,TGI,T-47D breast,> 100 µM
same,TGI,SF-295 CNS,> 100 µM
same,TGI,NCI-H23 lung,> 100 µM
same,TGI,SK-OV-3 ovarian,> 100 µM
same,TGI,SK-MEL-2 melanoma,> 100 µM
same,TGI,A549 NSCLC,> 100 µM
same,TGI,COLO 205 colon,> 100 µM
same,TGI,K-562 leukemia,> 100 µM
same,TGI,OVCAR-4 ovarian,> 100 µM
same,TGI,HOP-92 NSCLC,> 100 µM
same,TGI,HOP-62 NSCLC,> 100 µM
same,TGI,OVCAR-3 ovarian,> 100 µM
same,TGI,MDA-MB-231 breast,> 100 µM
same,TGI,ACHN renal,> 100 µM
same,TGI,UACC-62 melanoma,> 100 µM
COc1ccc(C(NS(=O)(=O)c2ccc(C)cc2)c2c(C(CBr)OC)c3ccccc3n2S(=O)(=O)c2ccccc2)cc1OC (configuration not stated),TGI,TK-10 renal,> 100 µM
same,TGI,HS 578T breast,> 100 µM
same,TGI,MDA-N,> 100 µM
same,TGI,HCT-116 colon,> 100 µM
same,TGI,UO-31 renal,> 100 µM
same,TGI,SK-MEL-5 melanoma,> 100 µM
same,TGI,BT-549 breast,> 100 µM
same,TGI,NCI-H522 lung,> 100 µM
same,TGI,NCI-H226 lung,> 100 µM
same,TGI,DU-145 prostate,> 100 µM
same,TGI,HT29 colon,> 100 µM
same,TGI,MCF7 breast,> 100 µM
same,TGI,NCI-H460 lung,> 100 µM
same,TGI,CAKI-1 renal,> 100 µM
same,TGI,SF-268 CNS,> 100 µM
same,TGI,U251 CNS,> 100 µM
same,TGI,IGROV1 ovarian,> 100 µM
same,TGI,HL-60(TB) leukemia,> 100 µM
same,TGI,A498 renal,> 100 µM
same,TGI,EKVX NSCLC,> 100 µM
same,TGI,OVCAR-5 ovarian,> 100 µM
same,TGI,SF-539 CNS,> 100 µM
same,TGI,PC-3 prostate,> 100 µM
same,TGI,KM12 colon,> 100 µM
same,TGI,SN12C renal,> 100 µM
same,TGI,SK-MEL-28 melanoma,> 100 µM
same,TGI,SNB-19 CNS,> 100 µM
same,TGI,MDA-MB-435,> 100 µM
same,TGI,M14 melanoma,> 100 µM
same,TGI,UACC-257 melanoma,> 100 µM
same,TGI,786-0 renal,> 100 µM
same,TGI,MOLT-4 leukemia,> 100 µM
same,TGI,NCI/ADR-RES ovarian,> 100 µM
same,TGI,SW-620 colon,> 100 µM
same,TGI,MALME-3M melanoma,> 100 µM
same,TGI,CCRF-CEM leukemia,> 100 µM
same,TGI,OVCAR-8 ovarian,> 100 µM
same,TGI,T-47D breast,> 100 µM
same,TGI,SF-295 CNS,> 100 µM
same,TGI,NCI-H23 lung,> 100 µM
same,TGI,SK-OV-3 ovarian,> 100 µM
same,TGI,SK-MEL-2 melanoma,> 100 µM
same,TGI,A549 NSCLC,> 100 µM
same,TGI,SNB-75 CNS,> 100 µM
same,TGI,COLO 205 colon,> 100 µM
same,TGI,K-562 leukemia,> 100 µM
same,TGI,RXF 393 renal,> 100 µM
same,TGI,OVCAR-4 ovarian,> 100 µM
same,TGI,LOX IMVI melanoma,> 100 µM
same,TGI,HOP-92 NSCLC,> 100 µM
same,TGI,HOP-62 NSCLC,> 100 µM
same,TGI,HCT-15 colon,> 100 µM
same,TGI,OVCAR-3 ovarian,> 100 µM
same,TGI,MDA-MB-231 breast,> 100 µM
same,TGI,HCC-2998 colon,> 100 µM
same,TGI,ACHN renal,> 100 µM
same,TGI,UACC-62 melanoma,> 100 µM

# Reference: PubChem BioAssay (NCI)
